Data reported in patent US20090047672A1, “Telomerase RNA Subunit and Methods of Use Thereof” (priority 2005, published 2009).

System: H2AX
Experiment: Immunoblotting of DNA damage response (H2AX phosphorylation)
Format: cell-based, human
Settings: BJ fibroblasts expressing control shRNA, 10 μM for 4 hrs
Text: The antibodies used in this study included: rabbit anti-H2AX (Novus); rabbit anti—H2AX (Upstate Biotechnology); rabbit anti-H2B (Upstate Biotechnology); mouse anti-H3 (Upstate Biotechnology); rabbit anti-H4 (Upstate Biotechnology); rabbit anti-macro H2A.1 (Upstate Biotechnology); rabbit anti-dimethyl H3 (K9) (Upstate Biotechnology); rabbit anti-acetyl H3 (Lys9) (Upstate Biotechnology); rabbit anti-acetyl H4 (K12) (Upstate Biotechnology); goat anti-phospho-specific BRCA1 (Ser1497) (Santa Cruz); rabbit anti-ATM-pS1981 (Rockland); rabbit anti-ATM-S1981 (Rockland); and mouse anti-p53 (Ab6) (Oncogene). Cells were lysed in RIPA buffer (12.5 mM NaPO4, pH7.2, 2 mM EDTA, 50 mM NaF, 1.25% NP-40, 1.25% SDS, 0.1 mM DTT) except when specific conditions are noted. For extraction under low salt conditions, cells were lysed in a buffer comprised of 20 mM Tris-HCl, pH 7.4, 150 mM NaCl, 0.1% NP40, 0.1 mM DTT. For high salt condition extraction, cells were lysed in a buffer composed of 20 mM Tris-HCl, pH 7.4, 500 mM NaCl, 0.5% NP40, 0.1 mM DTT. For acid precipitation of histones, cells were homogenized in 0.2 N H2SO4 and centrifuged. Histones were precipitated by adding ¼ volume of 100% (w/v) TCA. The pellets were suspended in 100% ethanol and centrifuged again at 13,000×g. 10 μg of protein was subjected to immunoblotting.

CCc1c2c(nc3ccc(OC(=O)N4CCC(N5CCCCC5)CC4)cc13)-c1cc3c(c(=O)n1C2)COC(=O)[C@]3(O)CC [irinotecan]
Phosphorylation of H2AX after treatment with chemotherapeutic agent: induced phosphorylation of H2AX
